Assay results as given in US9133207B2, “Tetrandrine derivatives with substituted 5-carbon, preparation method and use thereof” (Hangzhou Bensheng Pharmaceutical Co., Ltd., priority 2011, dated 2015).
Values after ≈ are worked out from the molar mass of the structure shown.

How the values were obtained:
[1] = system: H9 (acute lymphoblastic leukemia, ALL); assay: Leukemia cell growth inhibition, MTT, 72 h (Example 5); type: cell-based, human; settings: Homo sapiens; 72 h, MTT
Text: (§1) Leukemia cell lines: leukemia cell lines: K562/adr (drug-resistant, chronic myeloid leukemia, CML), NB4 (acute promyelocytic leukemia, AML), Kasumi-1 (acute myeloid leukemia M2 type, AML-M2), Jurkat (acute lymphoblastic leukemia, ALL), all of which are donated by Cancer Research Institute of Zhejiang University, China; and H9 (acute lymphoblastic leukemia, ALL), which is purchased from China Center for Type Culture Collection.
(§2) Reagents: The standard sample of tetrandrine (TTD) is purchased from Ci Yuan Biotechnology Co., Ltd., Shaanxi, China; and the 5-substituted tetrandrine derivatives of the present invention.
(§3) Obtaining 6000 well-growing leukemia cells and inoculating them into wells of a 96-well cell culture plate. The culture medium is a 1640 cell culture medium containing 10% fetal bovine serum. After adding the tetrandrine derivatives of different concentrations and mixing uniformly, placing the plate in a carbon dioxide cell incubator (5% CO2) at 37° C. and incubating for 72 hours. Then the viable cell concentration is determined by the MTT method.

[2] = system: Jurkat (acute lymphoblastic leukemia, ALL); assay: as above; type: cell-based, human; settings: Homo sapiens, Jurkat; 72 h, MTT
Text: as §1, §2, §3

[3] = system: K562/adr (drug-resistant, chronic myeloid leukemia, CML); assay: as above; type: cell-based, human; settings: Homo sapiens, K562/Adr; 72 h, MTT
Text: as §1, §2, §3

[4] = system: Kasumi-1 (acute myeloid leukemia M2 type, AML-M2); assay: as above; type: cell-based, human; settings: Homo sapiens, Kasumi 1
Text: as §1, §2, §3

[5] = system: NB4 (acute promyelocytic leukemia, AML); assay: as above; type: cell-based, human; settings: Homo sapiens; 72 h, MTT
Text: as §1, §2, §3

[6] = system: RPMI8226 (multiple myeloma); assay: Multiple myeloma cell growth inhibition, MTT, 72 h (Example 6); type: cell-based, human; settings: Homo sapiens, RPMI-8226; 72 h, MTT, RPMI8226
Procedure: Multiple myeloma and lymphoma cell lines: RPMI8226 (multiple myeloma), purchased from Fuxiang Bio-tech Co. Ltd., Shanghai, China.
(§4) Reagents: the same as in Example 5.
as §3, with “incubated” for “incubating”

[7] = system: CaES-17 (esophageal cancer cell); assay: Solid tumor cell growth inhibition, MTT, 72 h (Example 7); type: cell-based, human; settings: Homo sapiens, CaEs17; 72 h, MTT, CAES-17
Procedure: (§5) Human solid tumor cell lines: Hep-2 (laryngeal carcinoma), A549 (human lung cancer), CaES-17 (esophageal cancer cell), PC-3 (prostate cancer), CNE (nasopharyngeal carcinoma cell) and SK-OV-3 (ovarian cancer cell), all of which are purchased from China Center For Type Culture Collection; RKO (human colon adenocarcinoma cell), MGC 803 (human gastric cancer cell), MG63 (osteosarcoma), and U87 MG (malignant glioma cell), all of which are purchased from Fuxiang Bio-tech Co. Ltd., Shanghai, China; PANC-1 (pancreatic cancer), Huh? (human liver cancer cell), Becap37 (human breast cancer cell), and Hela (human cervical cancer cell), all of which are donated by Cancer Research Institute of Zhejiang University, China.
as §4
(§6) Obtaining 4000 well-growing human solid tumor cells and inoculating them into wells of a 96-well cell culture plate. The culture medium is DMEM High Glucose cell culture medium containing 10% fetal bovine serum. The plate is placed in a carbon dioxide cell incubator (5% CO2) at 37° C. and incubated for 24 hours. After been added with tetrandrine derivatives of different concentration and mixing uniformly, the plate is placed in a carbon dioxide cell incubator (5% CO2) at 37° C. and incubated for 72 hours. Then the viable cell concentration is determined by the MTT method and the cell viability (%) after drug treatment is calculated. In this experiment, the cell viability of control group (not treated with any compound) is set as 100%.

MG63 (osteosarcoma) = assay: as above; type: cell-based, human; settings: Homo sapiens; 72 h, MTT, MG-63
Procedure: as §5, §4, §6

[8] = system: PANC-1 (pancreatic cancer); assay: as above; type: cell-based, human; settings: Homo sapiens; 72 h, MTT, PANC-1
Procedure: as §5, §4, §6

PC-3 (prostate cancer) = assay: as above; type: cell-based, human; settings: for IC50 / IC90: Homo sapiens, 72 h, MTT, PC-3
Procedure: as §5, §4, §6

A549 (human lung cancer) = assay: as above; type: cell-based; settings: for IC50 / IC90: Homo sapiens, 72 h, MTT, A549
Procedure: as §5, §4, §6

[9] = system: Becap37 (human breast cancer cell); assay: as above; type: cell-based; settings: Homo sapiens; 72 h, MTT, Becap-37
Procedure: as §5, §4, §6

[10] = system: Huh7 (human liver cancer cell); assay: as above; type: cell-based; settings: Homo sapiens; 72 h, MTT, Huh-7
Procedure: as §5, §4, §6

[11] = system: MGC 803 (human gastric cancer cell); assay: as above; type: cell-based; settings: Homo sapiens
Procedure: as §5, §4, §6

[12] = system: RKO (human colon adenocarcinoma cell); assay: as above; type: cell-based; settings: Homo sapiens; 72 h, MTT, RKO
Procedure: as §5, §4, §6

Structure (SMILES)	IC50 [1]	IC90 [1]	IC50 [2]	IC90 [2]	IC50 [3]	IC90 [3]	IC50 [4]	IC90 [4]	IC50 [5]	IC90 [5]	IC50 [6]	IC90 [6]	IC50 [7]	IC90 [7]	IC50 (MG63 (osteosarcoma))	IC90 (MG63 (osteosarcoma))	IC50 [8]	IC90 [8]	IC50 (PC-3 (prostate cancer))	IC90 (PC-3 (prostate cancer))	other results
COc1ccc2cc1Oc1ccc(cc1)C[C@H]1c3cc(c(OC)cc3CCN1C)Oc1c(OC)c(OC)c(CN3CCC(O)CC3)c3c1[C@H](C2)N(C)CC3 [BS-TE-308]	1.7 µg/mL (≈ 2.31 µM)	4.68 µg/mL (≈ 6.36 µM)	3.91 µg/mL (≈ 5.31 µM)	12.7 µg/mL (≈ 17.3 µM)	3.54 µg/mL (≈ 4.81 µM)	12.4 µg/mL (≈ 16.8 µM)	1.76 µg/mL (≈ 2.39 µM)	8.69 µg/mL (≈ 11.8 µM)	1.43 µg/mL (≈ 1.94 µM)	6.61 µg/mL (≈ 8.98 µM)	0.28 µg/mL (≈ 0.38 µM)	0.76 µg/mL (≈ 1.03 µM)	3.43 µg/mL (≈ 4.66 µM)	27.4 µg/mL (≈ 37.3 µM)	1.38 µg/mL (≈ 1.88 µM)	4.84 µg/mL (≈ 6.58 µM)	6.54 µg/mL (≈ 8.89 µM)	14.7 µg/mL (≈ 19.9 µM)	5.39 µg/mL (≈ 7.32 µM)	8.99 µg/mL (≈ 12.2 µM)	IC50 (A549 (human lung cancer)): 2.79 µg/mL (≈ 3.79 µM); IC90 (A549 (human lung cancer)): 11.2 µg/mL (≈ 15.2 µM); IC50 [9]: 4.76 µg/mL (≈ 6.47 µM); IC90 [9]: 11.5 µg/mL (≈ 15.6 µM); IC50 [10]: 3.1 µg/mL (≈ 4.21 µM); IC90 [10]: 4.95 µg/mL (≈ 6.73 µM); IC50 [11]: 4.44 µg/mL (≈ 6.03 µM); IC90 [11]: 23 µg/mL (≈ 31.3 µM); IC50 [12]: 1.77 µg/mL (≈ 2.41 µM); IC90 [12]: 4.03 µg/mL (≈ 5.48 µM)
COc1ccc2cc1Oc1ccc(cc1)C[C@H]1c3cc(c(OC)cc3CCN1C)Oc1c(OC)c(OC)c(CN3CCCC3)c3c1[C@H](C2)N(C)CC3 [BS-TE-305]	0.7 µg/mL (≈ 0.992 µM)	1.44 µg/mL (≈ 2.04 µM)	1.35 µg/mL (≈ 1.91 µM)	4.96 µg/mL (≈ 7.03 µM)	0.44 µg/mL (≈ 0.623 µM)	7.2 µg/mL (≈ 10.2 µM)	0.52 µg/mL (≈ 0.737 µM)	3.11 µg/mL (≈ 4.41 µM)	0.29 µg/mL (≈ 0.411 µM)	2 µg/mL (≈ 2.83 µM)	0.006 µg/mL (≈ 0.0085 µM)	0.42 µg/mL (≈ 0.595 µM)	1.1 µg/mL (≈ 1.56 µM)	17 µg/mL (≈ 24 µM)	0.74 µg/mL (≈ 1.05 µM)	2.05 µg/mL (≈ 2.9 µM)	3.72 µg/mL (≈ 5.27 µM)	13.4 µg/mL (≈ 19 µM)	1.56 µg/mL (≈ 2.21 µM)	4.9 µg/mL (≈ 6.94 µM)	anti-PC-3 activity increase over tetrandrine (PC-3 (prostate cancer); compared with tetrandrine): ~4 fold; IC50 (A549 (human lung cancer)): 1 µg/mL (≈ 1.42 µM); IC90 (A549 (human lung cancer)): 5.25 µg/mL (≈ 7.44 µM); anti-A549 activity increase over tetrandrine (A549 (human lung cancer); compared with tetrandrine): ~3 fold; IC50 [9]: 1.44 µg/mL (≈ 2.04 µM); IC90 [9]: 6.24 µg/mL (≈ 8.84 µM); IC50 [10]: 1.28 µg/mL (≈ 1.81 µM); IC90 [10]: 2.3 µg/mL (≈ 3.26 µM); IC50 [11]: 1 µg/mL (≈ 1.42 µM); IC90 [11]: 10 µg/mL (≈ 14.2 µM); IC50 [12]: 0.66 µg/mL (≈ 0.935 µM); IC90 [12]: 1.65 µg/mL (≈ 2.34 µM)
COc1ccc2cc1Oc1ccc(cc1)C[C@H]1c3cc(c(OC)cc3CCN1C)Oc1c(OC)c(OC)c(CNCc3cccnc3)c3c1[C@H](C2)N(C)CC3 [BS-TE-348]	1.33 µg/mL (≈ 1.79 µM)	2.97 µg/mL (≈ 4 µM)	1.82 µg/mL (≈ 2.45 µM)	9.94 µg/mL (≈ 13.4 µM)	1.45 µg/mL (≈ 1.95 µM)	5.7 µg/mL (≈ 7.67 µM)	1.96 µg/mL (≈ 2.64 µM)	7.37 µg/mL (≈ 9.92 µM)	1.14 µg/mL (≈ 1.53 µM)	4.78 µg/mL (≈ 6.43 µM)	0.09 µg/mL (≈ 0.121 µM)	1 µg/mL (≈ 1.35 µM)	2.3 µg/mL (≈ 3.1 µM)	14.5 µg/mL (≈ 19.6 µM)	1.52 µg/mL (≈ 2.05 µM)	4.06 µg/mL (≈ 5.46 µM)	4.55 µg/mL (≈ 6.12 µM)	13.9 µg/mL (≈ 18.7 µM)	4.44 µg/mL (≈ 5.98 µM)	8.36 µg/mL (≈ 11.3 µM)	IC50 (A549 (human lung cancer)): 9.94 µg/mL (≈ 13.4 µM); IC90 (A549 (human lung cancer)): > 16 µg/mL; IC50 [9]: 3.84 µg/mL (≈ 5.17 µM); IC90 [9]: 13.6 µg/mL (≈ 18.3 µM); IC50 [10]: 3.05 µg/mL (≈ 4.11 µM); IC90 [10]: 8 µg/mL (≈ 10.8 µM); IC50 [11]: 1.93 µg/mL (≈ 2.6 µM); IC90 [11]: 5.53 µg/mL (≈ 7.44 µM); IC50 [12]: 1.77 µg/mL (≈ 2.38 µM); IC90 [12]: 3.83 µg/mL (≈ 5.16 µM)
COc1ccc2cc1Oc1ccc(cc1)C[C@H]1c3cc(c(OC)cc3CCN1C)Oc1c(OC)c(OC)c(CN3CCC(O)C3)c3c1[C@H](C2)N(C)CC3 (some centres unmarked) [BS-TE-322]	1.08 µg/mL (≈ 1.5 µM)	2.19 µg/mL (≈ 3.03 µM)	1.67 µg/mL (≈ 2.31 µM)	3.97 µg/mL (≈ 5.5 µM)	1.1 µg/mL (≈ 1.52 µM)	3.24 µg/mL (≈ 4.49 µM)	1.22 µg/mL (≈ 1.69 µM)	3.83 µg/mL (≈ 5.31 µM)	0.83 µg/mL (≈ 1.15 µM)	3.48 µg/mL (≈ 4.82 µM)	0.14 µg/mL (≈ 0.194 µM)	0.7 µg/mL (≈ 0.97 µM)	1.58 µg/mL (≈ 2.19 µM)	9.61 µg/mL (≈ 13.3 µM)	1 µg/mL (≈ 1.39 µM)	2.24 µg/mL (≈ 3.1 µM)	3.29 µg/mL (≈ 4.56 µM)	5.41 µg/mL (≈ 7.49 µM)	2.26 µg/mL (≈ 3.13 µM)	4.06 µg/mL (≈ 5.62 µM)	IC50 (A549 (human lung cancer)): 1.83 µg/mL (≈ 2.53 µM); IC90 (A549 (human lung cancer)): 6.34 µg/mL (≈ 8.78 µM); IC50 [9]: 2.31 µg/mL (≈ 3.2 µM); IC90 [9]: 4 µg/mL (≈ 5.54 µM); IC50 [10]: 1.42 µg/mL (≈ 1.97 µM); IC90 [10]: 1.94 µg/mL (≈ 2.69 µM); IC50 [11]: 2.29 µg/mL (≈ 3.17 µM); IC90 [11]: > 10 µg/mL; IC50 [12]: 0.9 µg/mL (≈ 1.25 µM); IC90 [12]: 2.4 µg/mL (≈ 3.32 µM)
